In publication PMC7588429, “Structure/activity virtual screening and in vitro testing of small molecule inhibitors of 8-hydroxy-5-deazaflavin:NADPH oxidoreductase from gut methanogenic bacteria” (Scientific Reports, 2020):
Read-outs that look alike come from different tables or passages of the source.

Tests used:
FNO from M. smithii [1] = biological target: T1, FNO from M. smithii (Methanobrevibacter smithii, UniProt A5UJ76); test: Fluorometric FNO activity inhibition assay (F420 reduction with NADPH); type: biochemical
T1 sequence (A5UJ76 entry or part of it): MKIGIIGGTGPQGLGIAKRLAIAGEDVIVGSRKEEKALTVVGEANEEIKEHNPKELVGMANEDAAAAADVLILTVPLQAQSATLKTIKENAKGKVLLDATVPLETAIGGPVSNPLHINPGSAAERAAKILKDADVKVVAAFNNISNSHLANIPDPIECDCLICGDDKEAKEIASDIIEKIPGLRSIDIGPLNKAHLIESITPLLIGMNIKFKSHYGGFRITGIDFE
Method: According to the fluorometric assay of FNO activity, we observed an evident decrease in F420 reduction rates upon 15 min preincubation of FNO with increasing levels of the ten representative compounds of interest (the superimposition of representative residual activity plots obtained with β-D-glucose pentaacetate, mangiferin and baicalin are shown in Fig. 11; the full panel is provided in Supplemental Information).
FNO catalyses the reduction of NADP^+ with F420H2 via hydride transfer, and the reverse reaction, i.e. the reduction of F420 with NADPH. Here, the spectrofluorometric assay of FNO activity was based on monitoring the decrease in F420 emission at 470 nm upon excitation at 420 nm. Briefly, FNO (4 nM) was incubated with 0.5 mM F420 (purified from T. roseum as described in the Supplementary Information) and 0.5 mM NADPH (this concentration was selected on the basis of Km values in other methanogenic organisms[42]) at 37 °C in the presence or in the absence of increasing concentrations of the compounds of interest in 50 mM sodium citrate, pH 6.0. […] The residual activity ( a ) was expressed as the ratio of the initial velocities of the product formation in the presence ( V0,i ) and in the absence ( V0 ) of a given inhibitor concentration [Ii]. Raw data were processed as described elsewhere.

FNO from M. smithii [2] = biological target: T1, FNO from M. smithii; test: SPR optical biosensor binding to immobilized FNO; conditions: for kass / kdiss / kon / koff: PBS pH 7.4; for kon: read-out: kass; for koff: read-out: kdiss
Method: FNO was covalently immobilized on a carboxylate surface according to the protocol described in the Materials and Methods section. The change in the signal related to immobilization of the enzyme (ΔR ≅ 1,000 arcsec) corresponded to the achievement of a partial Langmuir monolayer for a protein of 120 kDa (2 ng/mm^2). The affinities of FNO for the ten compounds of interest were derived from the fit of raw data (representative sensorgrams are shown in Fig. 8; full panel is provided in Supplemental Information) to a mono-exponential model.
FNO from M. smithii (isolated as described in the Supplementary Information) was covalently coupled to the carboxylate surface of the sensor via EDC/NHS chemistry. Upon successful immobilization of FNO, unreacted carboxyl groups were blocked with ethanolamine 1 M pH 8.5, and the surface was eventually equilibrated with PBS. Independent additions of each molecule at different concentrations (β-D-glucose pentacetate 1.25–62.5 µM; mangiferin 3.125–37.5 µM; baicalin 1.25–25 µM; frangulin A 30–480 nM; ononin 29–465 nM; 5z-caffeoylquinic acid […]; ZINC35442308 0.30–4.92 µM; ZINC248099510 0.31–4.93 µM; ZINC2120951 0.32–5.1 µM; ZINC9271779 0.32–5.2 µM) to surface-blocked FNO were performed, each time monitoring the association kinetics until equilibrium. […] The affinities between surface-blocked FNO and soluble ligands were derived from the fit of raw data to single exponential model.

FNO [3] = test: Competitive binding test with NADP+ on biosensor; parameters: species or system Methanobrevibacter smithii
Method: A competitive binding test between NADP^+ and three out of the ten compounds (with high, moderate and low affinity for FNO, respectively) was performed to identify the binding site on FNO. The protocol involved the addition of a given concentration of baicalin, mangiferin and β-D-glucose pentaacetate to both free and NADP^+-saturated FNO.

FNO [4] = test: pH dependence of mangiferin-FNO binding (biosensor, linkage analysis); conditions: 7.35 ± 0.33 in free enzyme
Method: In order to evaluate the effects of pH on the enzyme-ligand interaction, the binding of mangiferin (6.25–62.5 µM) to FNO was studied at different pH values in the range 6.0–8.0.
To evaluate the effects of pH on the enzyme-ligand interaction, the binding studies between mangiferin and FNO were replicated in a pH range between 6.4 and 8. The observed dependence of experimental KD from pH was analyzed according to a classic linkage relationship, protons being considered as heterotropic ligands for FNO[40]. This model involves a macromolecule (FNO) having a binding site for a ligand (mangiferin), and heterotropic binding sites able to accommodate a second ligand (H^+). These binding sites for protons present on the macromolecule can be grouped into two main sets: one with n binding sites with an ionization constant λ1, and one with m binding sites, each having an ionization constant equal to λ2. Therefore, the macromolecule can be described in three main ionization conditions: at low and at high pH values the fully protonated and the completely deprotonated forms prevail, respectively, whereas the intermediate form prevails at pH values equal to:1 pH=-logλ1-logλ2/2
Upon binding, the proton binding sites have their ionization constants shifted to λ3 and λ4, respectively. […]

FNO from M. smithii [5] = biological target: T1, FNO from M. smithii; test: Molecular docking (AutoDock Vina) onto the homology model of FNO; conditions: predicted
Source text: The 8,012 compounds selected from the Zbc database subset on molecular weight and clogP criteria were individually docked against the homology model of FNO from M. smithii using a Perl/Python pipeline on AutoDock Vina. The residues constituting the catalytic site of FNO were retrieved from the available literature[19] and explicitly defined as the grid centre for all ligands. The quantitative results of docking in terms of ΔGpred of each highest-score pose were collected into a single array (ΔGpred values ranged between − 4.9 and − 10.5 kcal/mol), which was then merged with the other structural descriptors (as PSA, H-donors and acceptors, cLogP, MW, Drug-likeness, Total surface area) available for each compound as summarized in Supplementary Information.
In the absence of a crystallographic structure for FNO from M. smithii, its three-dimensional structure was obtained by homology modelling, according to a previously reported procedure. […]
8,012 molecules selected from the Zbc subset of ZINC database[36] on molecular weight (350–450 amu) and hydrophobicity (cLogP < 3.85) criteria were iteratively docked to the homology model of FNO from M. smithii using AutoDock Vina[37]. […] Structural properties of each molecule and calculated binding affinities to FNO were globally analysed with DataWarrior[38].

[6] = 0.5 mM NADPH, 15 min preincubation, pH 6.0, 37 °C
[7] = experimental equilibrium constant, read-out: KD,E
[8] = 0.5 mM NADPH, 15 min preincubation, pH 6.0, 37 °C, read-out: Ki

For `COc1cc(OC)c2c(C)c(CC(=O)NCC(=O)NCC(=O)O)c(=O)oc2c1` [ZINC2120951], the Ki (FNO from M. smithii [1]; [6]) was 970 ± 670 nM, the kass (FNO from M. smithii [2]) was 2,423 ± 116 M^−1 s^−1 and the kdiss (FNO from M. smithii [2]) was 0.004 ± 0.001 s⁻¹. It also gave a Kd (FNO from M. smithii [2]; [7]) of 1650 ± 410 nM.

With `Nc1ncnc2c1nc(NN=Cc1ccccc1)n2C1OC(CO)C(O)C1O` (stereo not drawn) [ZINC9271779] the Ki (FNO from M. smithii [1]; [6]) was 1070 ± 340 nM, the kass (FNO from M. smithii [2]) was 1,147 ± 267 M^−1 s^−1 and the kdiss (FNO from M. smithii [2]) was 0.0078 ± 0.0008 s⁻¹. For the same compound, the Kd (FNO from M. smithii [2]; [7]) was 6800 ± 1700 nM.

For `Cc1cc(O)c2c(c1)C(=O)c1cc(O[C@@H]3O[C@@H](C)[C@H](O)[C@@H](O)[C@H]3O)cc(O)c1C2=O` [Frangulin A], the “increase of inhibitory potency from β-D-glucose pentaacetate” value (FNO from M. smithii [1]; 0.5 mM NADPH) was “approximately 100 fold”, the Ki (FNO from M. smithii [1]; [8]) was 49 ± 14 nM and the kon (FNO from M. smithii [2]) was 35200 M⁻¹ s⁻¹. It also gave a koff (FNO from M. smithii [2]) of 0.0045 ± 0.0014 s⁻¹ and a Kd (FNO from M. smithii [2]; [7]) of 130 ± 50 nM.

In the case of `O=C(C=Cc1ccc(O)c(O)c1)OC1CC(O)(C(=O)O)CC(O)C1O` (stereo not drawn) [5z-caffeoylquinic acid], the Ki (FNO from M. smithii [1]; [6]) is reported as 210 ± 140 nM, the kass (FNO from M. smithii [2]) is reported as 20,406 ± 2,270 M^−1 s^−1 and the kdiss (FNO from M. smithii [2]) is reported as 0.005 ± 0.003 s⁻¹. It also gave a Kd (FNO from M. smithii [2]; [7]) of 230 ± 160 nM.

`CC(=O)OC[C@H]1O[C@@H](OC(C)=O)[C@H](OC(C)=O)[C@@H](OC(C)=O)[C@@H]1OC(C)=O` [β-D-glucose pentaacetate] was tested, and the Ki (FNO from M. smithii [1]; [8]) was 3960 ± 200 nM, the kon (FNO from M. smithii [2]) was 2720 M⁻¹ s⁻¹ and the koff (FNO from M. smithii [2]) was 0.013 ± 0.005 s⁻¹. The Kd (FNO from M. smithii [2]; [7]) was 4850 ± 1850 nM and the “biosensor response on NADP+-saturated FNO with respect to free enzyme” value (“biosensor response … to free enzyme” below) (FNO [3]) was “significantly lower”.

For `O=C(O)[C@H]1O[C@@H](Oc2cc3oc(-c4ccccc4)cc(=O)c3c(O)c2O)[C@H](O)[C@@H](O)[C@@H]1O` [Baicalin], the Ki (FNO from M. smithii [1]) was 45 ± 3 nM, the Kd (FNO from M. smithii [2]) was 65 ± 28 nM and the kon (FNO from M. smithii [2]) was 3870 M⁻¹ s⁻¹. For the same compound, the koff (FNO from M. smithii [2]) was 0.00025 ± 0.0001 s⁻¹ and the “biosensor response … to free enzyme” value (FNO [3]) was “significantly lower”.

`COc1ccc(-c2coc3cc(O[C@@H]4O[C@H](CO)[C@@H](O)[C@H](O)[C@H]4O)ccc3c2=O)cc1` [Ononin] showed a Ki (FNO from M. smithii [1]; [8]) of 205 ± 69 nM, a kon (FNO from M. smithii [2]) of 29700 M⁻¹ s⁻¹ and a koff (FNO from M. smithii [2]) of 0.0072 ± 0.0033 s⁻¹. The Kd (FNO from M. smithii [2]; [7]) was 240 ± 110 nM.

With `O=c1c2cc(O)c(O)cc2oc2cc(O)c([C@@H]3O[C@H](CO)[C@@H](O)[C@H](O)[C@H]3O)c(O)c12` [Mangiferin] the Ki (FNO from M. smithii [1]; [8]) was 650 ± 250 nM, the kon (FNO from M. smithii [2]) was 4820 M⁻¹ s⁻¹ and the koff (FNO from M. smithii [2]) was 0.002 ± 0.00097 s⁻¹. The Kd (FNO from M. smithii [2]; [7]) was 400 ± 200 nM, the “pKa of histidine residue in FNO-mangiferin complex” value (FNO [4]; pH 6.4 to 7.4) was 5.26 ± 2.61 and the “pKa of histidine residue in FNO-mangiferin complex” value (FNO [4]; pH 7.4 to 8.0) was 8.21 ± 0.12. For the same compound, the “affinity for FNO with respect to ZINC05409528” value (FNO from M. smithii [5]) was “nearly sevenfold lower affinity” and the “biosensor response … to free enzyme” value (FNO [3]) was “significantly lower”.
